Here are results for five molecules from patent publication US20110244047A1, “FILM-FORM PREPARATION AND METHOD FOR PRODUCING THE SAME” (NITTO DENKO CORPORATION, priority 2010, published 2011).

Each structure is given as a SMILES string.

The series is described as follows: Particle size of the drug particles used (electron microscope, 200 particles). The class given is physicochemical. As to conditions: drug particles before incorporation. On the procedure:
The various drug particles used in the Examples and Comparative Examples were obtained passing the powder through a 32 μm, 50 μm or 90 μm sieve after pulverization, or obtained fine particles by a jet mill (product of Hosokawa Micron Group, spiral jet mill model 50AS) or a spray dryer (product of Büchi Labortechnik AG, mini spray dryer model B-290) after pulverization. The particle sizes of these drug particles was measured by electron microscope (product of Hitachi High-Technologies Corp., model TM-1000) and the 50 vol % average particle size was calculated from the measurement results of 200 particles. This value was used as the particle size index of the particles.
`COc1ccc2c(c1)c(CC(=O)O)c(C)n2C(=O)c1ccc(Cl)cc1` [Indomethacin particles, Indomethacin]: the “50 vol % average particle size” value is listed as 1.8 um.

For the molecule `CC(C(=O)O)c1cccc(C(=O)c2ccccc2)c1` (centres unmarked) [Ketoprofen particles, Ketoprofen], the “50 vol % average particle size” value turned out to be 1.7 um.

Regarding `COc1ccc2[nH]cc(CCNC(C)=O)c2c1` [Melatonin particles A, Melatonin], the “50 vol % average particle size” value is 2.1 um.

Take `COc1ccc2[nH]cc(CCNC(C)=O)c2c1` [Melatonin particles B, Melatonin]: the “50 vol % average particle size” value worked out at 28.4 um.

For the molecule `COc1ccc2[nH]cc(CCNC(C)=O)c2c1` [Melatonin particles C, Melatonin], the “50 vol % average particle size” value was found to be 180.5 um.
